Data published in patent publication US20110207751A1, “HETEROCYCLIC COMPOUNDS AND USES AS ANTICANCER AGENTS” (priority 2010, published 2011).
pIC50: −log10 of the molar value. Counter-ions that a name gives are not always drawn.

Key:
Test in all cases: Inhibition of cell proliferation, xCelligence cell index
Format in all cases: cell-based
[1] = tested on: NCI-H460 cells (human large cell lung carcinoma cell line); conditions: 72 hr post compound treatment, read-out: calculated IC50
Text: (§1) The biological activity of compounds disclosed herein was monitored and profiled using the Real-Time Cell Electronic Sensing (RT-CES®) system from ACEA Biosciences, Inc. The RT-CES system utilizes cell-substrate impedance technology to monitor cellular behavior inside tissue culture wells in a microtiter plate format. The technology features in the integration of molecular and cell biology with microelectronics and is based on the electronic detection of biological assay process. The details of this cell electronic sensing technology and associated devices, systems and methods of use are described in U.S. Pat. No. 7,167,585; U.S. Pat. No. 7,468,255; PCT publication number WO 2004/010102; U.S. Pat. No. 7,470,533; and U.S. Pat. No. 7,459,303, each of which is incorporated herein by reference. Additional details of RT-CES technology are further disclosed in U.S. Pat. No. 7,468,255.
For measurement of cell-substrate or cell-electrode impedance using RT-CES technology, microelectrodes having appropriate geometries are fabricated onto the bottom surfaces of microtiter plate or similar device, facing into the wells. […] When there are changes to the biological status of the cells analogue electronic readout signals are measured automatically and in real time, and are converted to digital signals for processing and for analysis. In a RT-CES system, a cell index (arbitrary representation of change in impedance) is automatically derived and provided based on measured electrode impedance values. […]
(§2) To quantify cell status based on the measured cell-electrode impedance, a parameter termed Cell Index is derived. Cell Index is a quantitative measure of the status of the cells in an electrode-containing well. […]
NCI-H460 cells (human large cell lung carcinoma cell line) were seeded into wells of 96 well E-plate devices (Roche) with an initial seeding density of 5000 cells per well and were pre-incubated in incubator under standard cell culture condition for about 24 hours. […] The cell status was monitored prior to and after the compound addition using xCelligence system (Roche). […]

[2] = tested on: U138MG cells (human brain cancer cell line); conditions: U138-MG, 72 hr post compound treatment, read-out: calculated IC50
Protocol: U138MG cells (human brain cancer cell line) were seeded into wells of 96 well E-plate devices (Roche) with an initial seeding density of 5000 cells per well and were pre-incubated in incubator under standard cell culture condition for about 24 hours. […] The cell status was monitored prior to and after the compound addition using xCelligence system (Roche). […]

[3] = tested on: A172 cells (human brain cancer cell line); conditions: A 172, 72 hr post compound treatment, read-out: calculated IC50
Protocol: A172 cells (human brain cancer cell line) were seeded into wells of 96 well E-plate devices (Roche) with an initial seeding density of 5000 cells per well and were pre-incubated in incubator under standard cell culture condition for about 24 hours. […] The cell status was monitored prior to and after the compound addition using xCelligence system (Roche). […]

[4] = tested on: GTL16 cells (human gastric cancer cell line); conditions: GTL 16, 72 hr post compound treatment, read-out: calculated IC50
Text: as §1
For measurement of cell-substrate or cell-electrode impedance using RT-CES technology, microelectrodes having appropriate geometries are fabricated onto the bottom surfaces of microtiter plate or similar device, facing into the wells. Cells are introduced into the wells of the devices, and make contact to and attach to the electrode surfaces. The presence, absence or change of properties of cells affects the electronic and ionic passage on the electrode sensor surfaces. Measuring the impedance between or among electrodes provides important information about biological status of cells present on the sensors. When there are changes to the biological status of the cells analogue electronic readout signals are measured automatically and in real time, and are converted to digital signals for processing and for analysis. In a RT-CES system, a cell index (arbitrary representation of change in impedance) is automatically derived and provided based on measured electrode impedance values. […]
as §2

[5] = tested on: H1993 cells (human non-small cell lung cancer cell line); conditions: NCI-H1993, 72 hr post compound treatment, read-out: calculated IC50
Text: (§3) For measurement of cell-substrate or cell-electrode impedance using RT-CES technology, microelectrodes having appropriate geometries are fabricated onto the bottom surfaces of microtiter plate or similar device, facing into the wells. Cells are introduced into the wells of the devices, and make contact to and attach to the electrode surfaces. The presence, absence or change of properties of cells affects the electronic and ionic passage on the electrode sensor surfaces. Measuring the impedance between or among electrodes provides important information about biological status of cells present on the sensors. When there are changes to the biological status of the cells analogue electronic readout signals are measured automatically and in real time, and are converted to digital signals for processing and for analysis. In a RT-CES system, a cell index (arbitrary representation of change in impedance) is automatically derived and provided based on measured electrode impedance values. The cell index obtained for a given well reflects: 1) how many cells are attached to the electrode surfaces in this well; 2) how well cells are attached to the electrode surfaces in this well. […]
H1993 cells (human non-small cell lung cancer cell line) were seeded into wells of 96 well E-plate devices (Roche) with an initial seeding density of 5000 cells per well and were pre-incubated in incubator under standard cell culture condition for about 24 hours. […] The cell status was monitored prior to and after the compound addition using xCelligence system (Roche). […]

[6] = tested on: SW1088 cells (human brain cancer cell line); conditions: 72 hr post compound treatment, read-out: calculated IC50
Text: as §3
SW1088 cells (human brain cancer cell line) were seeded into wells of 96 well E-plate devices (Roche) with an initial seeding density of 5000 cells per well and were pre-incubated in incubator under standard cell culture condition for about 24 hours. […] The cell status was monitored prior to and after the compound addition using xCelligence system (Roche). […]

pIC50 [1] | pIC50 [2] | pIC50 [3] | pIC50 [4] | pIC50 [5] | pIC50 [6] | SMILES
7.98 | 9.19 | 8.89 | 8.43 | 8.61 | 8.30 | CC[C@]1(O)C[C@H]2CN(CCc3c([nH]c4ccccc34)[C@@](C(=O)OC)(c3cc4c(cc3OC)N(C=O)[C@H]3[C@@](O)(C(=O)OC)[C@H](OC(C)=O)[C@]5(CC)C=CCN6CC[C@]43[C@@H]65)C2)C1 [vincristine]
7.96 | 8.47 | 7.94 | 7.17 | 7.22 | 7.67 | CCc1ccc(Nc2nc(-c3c(C)nc4sccn34)cs2)cc1 [COMPOUND O, 2-(4-ethylphenyl)amino-4-(6-methylimidazo[2,1-b]thiazol-5-yl)-thiazole monohydrobromide]
8.57 | 7.74 | 8.35 | 8.99 | 8.29 | 7.88 | CC(=O)O[C@H]1C(=O)[C@@]2(C)[C@H]([C@H](OC(=O)c3ccccc3)[C@]3(O)C[C@H](OC(=O)[C@H](O)[C@@H](NC(=O)c4ccccc4)c4ccccc4)C(C)=C1C3(C)C)[C@]1(OC(C)=O)CO[C@@H]1C[C@@H]2O [paclitaxel]
